We go through nine compounds from ChEMBL document CHEMBL1772944, “Homoflavonoid glucosides from Ophioglossum pedunculosum and their anti-HBV activity” (J Nat Prod, 2011).

pIC50: −log10 of the molar value.

Test system in the first data set: not listed separately
In words: Cytotoxicity against human HepG2(2.2.15) cells after 8 days by MTT assay. It counts as cell-based. In general terms: Formazan colour is commonly taken as a measure of viable cells.
A word on the CC50: it is the concentration that lowers cell viability or growth by half. Read a high CC50 as better tolerance by the cells. The compound `Nc1ccn([C@@H]2CS[C@H](CO)O2)c(=O)n1` [LAMIVUDINE] had a CC50 at 192 h of 2400 µM. As to `O=c1c(O)c(-c2ccc(O)c(O)c2)oc2cc(O)cc(O)c12` [QUERCETIN], the CC50 at 192 h amounted to 38.1 µM.

`COc1c(-c2ccc(O)c(O)c2)oc2cc(O)cc(O)c2c1=O` [3-O-METHYLQUERCETIN] yielded a CC50 at 192 h of 2.1 µM.

`O=c1c(CO)c(-c2ccc(O[C@@H]3O[C@H](CO)[C@@H](O)[C@H](O)[C@H]3O)c(O)c2)oc2cc(O)cc(O)c12` yielded a CC50 at 192 h of 19.7 µM. Still for that read-out and setting: the figure for `COc1c(-c2ccc(O[C@@H]3O[C@H](CO)[C@@H](O)[C@H](O)[C@H]3O)c(O)c2)oc2cc(O[C@@H]3O[C@H](CO)[C@@H](O)[C@H](O)[C@H]3O)cc(O)c2c1=O` is 7.9 µM; for `O=c1c(CO)c(-c2ccc(O[C@@H]3O[C@H](CO)[C@@H](O)[C@H](O)[C@H]3O)c(O)c2)oc2cc(O[C@@H]3O[C@H](CO)[C@@H](O)[C@H](O)[C@H]3O[C@@H]3O[C@H](CO)[C@@H](O)[C@H](O)[C@H]3O)cc(O)c12` [PEDUNCULOSUMOSIDE E] it is > 100 µM. Same read-out and setting: the figure for `O=c1c2c(oc3cc(O)cc(O)c13)-c1ccc(O)c(O)c1CO2` [OPHIOGLONIN] is 20.4 µM; for `COc1c(-c2ccc(O)c(O)c2)oc2cc(O[C@@H]3O[C@H](CO)[C@@H](O)[C@H](O)[C@H]3O)cc(O)c2c1=O` [TRANSILIN] it is 5.4 µM; for `O=c1c(CO)c(-c2ccc(O[C@@H]3O[C@H](CO)[C@@H](O)[C@H](O)[C@H]3O)c(O)c2)oc2cc(O[C@@H]3O[C@H](CO)[C@@H](O)[C@H](O)[C@H]3O)cc(O)c12` [PEDUNCULOSUMOSIDE F] it is 56.7 µM.

For a further data set, the system named is Hepatitis B virus. In words: Antiviral activity against HBV transfected in human HepG2(2.2.15) cells assessed as inhibition of HBsAg secretion by ELISA. It counts as functional, organism-based. Background: An ELISA detects its analyte on a solid surface through an enzyme-linked reagent.
The pIC50 is −log10 of the IC50, conventionally taken in molar units. In the case of `Nc1ccn([C@@H]2CS[C@H](CO)O2)c(=O)n1` [LAMIVUDINE], the pIC50 was 4.24.
